The values below come from patent publication US12065436B2, “Cardiac sarcomere inhibitors” (Cytokinetics, Inc., priority 2018, dated 2024).

This experiment concerns the target bovine cardiac myofibrils (full-length cardiac myosin ATPase in the native sarcomere) (Bos taurus (Bovine), UniProt Q9BE39). The experiment in a line: Skinned bovine cardiac myofibril ATPase assay (PK/LDH-coupled). Format: biochemical. The settings on record: Ca2+ activating to 75% of maximal rate; for CDMF75 IC15: concentration giving 15% inhibition; for IC50: read-out: CDMF75 IC50. The procedure, abridged: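 Triton-skinned bovine left-ventricle myofibrils (1 mg/mL) in PM 12 buffer (12 mM PIPES, 2 mM MgCl2, pH 6.8) with 50 μM ATP, 0.6 mM EGTA and CaCl2 set for 50% or 75% activation. Steady-state ATPase inhibition followed by PK/LDH-coupled NADH oxidation at 340 nm.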

Chain of bovine cardiac myofibrils (full-length cardiac myosin ATPase in the native sarcomere) (Q9BE39 whole entry): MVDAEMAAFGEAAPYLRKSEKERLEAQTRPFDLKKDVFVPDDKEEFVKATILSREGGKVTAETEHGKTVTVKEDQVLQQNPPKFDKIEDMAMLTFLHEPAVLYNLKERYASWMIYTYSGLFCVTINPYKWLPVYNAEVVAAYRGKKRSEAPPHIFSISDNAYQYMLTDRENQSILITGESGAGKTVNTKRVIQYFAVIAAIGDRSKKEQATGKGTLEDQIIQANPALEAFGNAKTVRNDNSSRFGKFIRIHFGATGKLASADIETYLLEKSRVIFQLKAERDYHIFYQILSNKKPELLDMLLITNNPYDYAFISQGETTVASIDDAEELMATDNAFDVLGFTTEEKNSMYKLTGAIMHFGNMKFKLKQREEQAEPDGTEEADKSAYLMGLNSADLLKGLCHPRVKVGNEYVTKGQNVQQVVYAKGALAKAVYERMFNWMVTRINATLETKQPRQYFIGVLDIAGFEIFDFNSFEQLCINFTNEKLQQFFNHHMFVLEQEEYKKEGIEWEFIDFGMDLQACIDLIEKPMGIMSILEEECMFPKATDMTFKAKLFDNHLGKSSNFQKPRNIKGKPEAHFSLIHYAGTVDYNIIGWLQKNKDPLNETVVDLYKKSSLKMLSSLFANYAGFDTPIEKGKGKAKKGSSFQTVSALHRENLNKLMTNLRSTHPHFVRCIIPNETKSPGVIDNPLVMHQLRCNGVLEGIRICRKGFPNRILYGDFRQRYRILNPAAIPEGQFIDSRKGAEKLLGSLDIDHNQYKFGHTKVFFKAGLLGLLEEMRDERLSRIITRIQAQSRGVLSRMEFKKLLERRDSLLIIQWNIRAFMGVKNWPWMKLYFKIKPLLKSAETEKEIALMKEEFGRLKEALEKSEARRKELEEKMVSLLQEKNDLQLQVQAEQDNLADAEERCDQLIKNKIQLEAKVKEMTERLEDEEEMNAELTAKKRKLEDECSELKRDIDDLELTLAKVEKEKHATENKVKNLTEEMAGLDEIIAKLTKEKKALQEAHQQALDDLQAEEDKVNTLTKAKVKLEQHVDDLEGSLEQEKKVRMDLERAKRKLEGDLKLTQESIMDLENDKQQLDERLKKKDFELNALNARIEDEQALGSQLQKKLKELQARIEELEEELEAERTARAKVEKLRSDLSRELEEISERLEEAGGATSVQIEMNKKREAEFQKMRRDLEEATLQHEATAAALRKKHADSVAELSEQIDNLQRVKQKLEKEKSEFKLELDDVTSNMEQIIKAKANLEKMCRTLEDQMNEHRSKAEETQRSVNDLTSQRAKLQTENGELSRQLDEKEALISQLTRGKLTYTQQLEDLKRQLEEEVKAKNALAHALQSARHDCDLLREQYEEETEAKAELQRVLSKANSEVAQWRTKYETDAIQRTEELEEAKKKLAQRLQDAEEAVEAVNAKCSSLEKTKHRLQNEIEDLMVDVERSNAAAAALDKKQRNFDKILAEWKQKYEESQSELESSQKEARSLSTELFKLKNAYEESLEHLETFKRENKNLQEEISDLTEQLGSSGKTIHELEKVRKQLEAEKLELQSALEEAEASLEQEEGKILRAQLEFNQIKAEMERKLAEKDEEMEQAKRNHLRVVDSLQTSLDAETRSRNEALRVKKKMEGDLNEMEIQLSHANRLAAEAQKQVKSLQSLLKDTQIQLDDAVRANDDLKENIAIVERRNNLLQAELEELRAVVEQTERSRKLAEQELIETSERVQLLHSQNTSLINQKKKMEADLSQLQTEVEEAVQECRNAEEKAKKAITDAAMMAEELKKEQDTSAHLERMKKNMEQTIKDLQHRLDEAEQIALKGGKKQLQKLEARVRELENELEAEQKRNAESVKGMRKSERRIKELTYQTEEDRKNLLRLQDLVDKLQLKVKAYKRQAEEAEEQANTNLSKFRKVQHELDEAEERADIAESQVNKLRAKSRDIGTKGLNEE
Chain of bovine cardiac myofibrils (full-length cardiac myosin ATPase in the native sarcomere) (P85100 whole entry partner): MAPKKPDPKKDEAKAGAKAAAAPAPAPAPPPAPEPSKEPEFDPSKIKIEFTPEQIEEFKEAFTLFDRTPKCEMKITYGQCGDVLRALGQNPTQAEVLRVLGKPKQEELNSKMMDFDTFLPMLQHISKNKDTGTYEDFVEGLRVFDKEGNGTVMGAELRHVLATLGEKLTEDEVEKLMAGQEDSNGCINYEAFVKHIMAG
Chain of bovine cardiac myofibrils (full-length cardiac myosin ATPase in the native sarcomere) (Q3SZE5 whole entry partner): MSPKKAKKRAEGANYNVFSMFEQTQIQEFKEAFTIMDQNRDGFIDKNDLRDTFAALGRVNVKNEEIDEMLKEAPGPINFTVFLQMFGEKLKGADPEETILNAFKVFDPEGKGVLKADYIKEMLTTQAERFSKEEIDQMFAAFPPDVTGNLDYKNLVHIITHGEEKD

In the case of `Cc1nc(-c2ccc3c(c2)CCC3NC(=O)Nc2ccccn2)no1` (centres unmarked) [Compound 109, 1-(5-(5-methyl-1,2,4-oxadiazol-3-yl)-2,3-dihydro-1H-inden-1-yl)-3-(pyridin-2-yl)urea], the “CDMF75 IC15” value amounted to 1900 nM and the IC50 stood at 7100 nM.

Regarding `[2H]C([2H])([2H])c1noc(-c2ccc3c(c2)CC[C@H]3NC(=O)c2oncc2C)n1` [Compound 275, (R)-4-methyl-N-(5-(3-(methyl-d3)-1,2,4-oxadiazol-5-yl)-2,3-dihydro-1H-inden-1-yl)isoxazole-5-carboxamide], the “CDMF75 IC15” value was 800 nM and the IC50 was found to be 2900 nM.

In the case of `Cc1cc(-c2ccc3c(c2)CC[C@H]3NC(=O)c2cn[nH]c2C)no1` [Compound 432, (R)-5-methyl-N-(5-(5-methylisoxazol-3-yl)-2,3-dihydro-1H-inden-1-yl)-1H-pyrazole-4-carboxamide], the “CDMF75 IC15” value is 800 nM and the IC50 amounted to 2500 nM.

With `Cc1cc(C(=O)NC2COc3cc(-c4noc(C)n4)cnc32)ccn1` (centres unmarked) [Compound 187, 2-methyl-N-(6-(5-methyl-1,2,4-oxadiazol-3-yl)-2,3-dihydrofuro[3,2-b]pyridin-3-yl)isonicotinamide], the “CDMF75 IC15” value was determined as 11500 nM and the IC50 is over 39200 nM.

Turning to `Cc1cc(C(=O)NC2COc3cc(-c4noc(C5CC5)n4)ccc32)n(C)n1` (centres unmarked) [Compound 232, N-(6-(5-cyclopropyl-1,2,4-oxadiazol-3-yl)-2,3-dihydrobenzofuran-3-yl)-1,3-dimethyl-1H-pyrazole-5-carboxamide], the “CDMF75 IC15” value amounted to 700 nM and the IC50 amounted to 2400 nM.

`COCc1nc(-c2ccc3c(c2)CC[C@H]3NC(=O)C(F)F)no1` [Compound 437, (R)-2,2-difluoro-N-(5-(5-(methoxymethyl)-1,2,4-oxadiazol-3-yl)-2,3-dihydro-1H-inden-1-yl)acetamide]: the “CDMF75 IC15” value came to 8800 nM and the IC50 was 34400 nM.

For the compound `CC(C)c1nc(-c2ccc3c(c2)CC[C@H]3NC(=O)c2cnn(C)c2)no1` [Compound 394, (R)-N-(5-(5-isopropyl-1,2,4-oxadiazol-3-yl)-2,3-dihydro-1H-inden-1-yl)-1-methyl-1H-pyrazole-4-carboxamide], the “CDMF75 IC15” value was 1200 nM and the IC50 is 4100 nM.

As to `COC(=O)N[C@@H]1CCc2cc(-c3nc(C4CC4)no3)ccc21` [Compound 350, methyl (R)-(5-(3-cyclopropyl-1,2,4-oxadiazol-5-yl)-2,3-dihydro-1H-inden-1-yl)carbamate], the “CDMF75 IC15” value came out at 500 nM and the IC50 is 2100 nM.

As for `Cc1cc(C(=O)N[C@@H]2CCc3cc(-c4noc(C(F)F)n4)ccc32)on1` [Compound 679, (R)-N-(5-(5-(difluoromethyl)-1,2,4-oxadiazol-3-yl)-2,3-dihydro-1H-inden-1-yl)-3-methylisoxazole-5-carboxamide], the “CDMF75 IC15” value is 800 nM and the IC50 is 3000 nM.

As to `Cc1cc(C(=O)NC2CCc3cc(-c4nc(C(F)F)no4)ccc32)ccn1` (centres unmarked) [Compound 132, N-(5-(3-(difluoromethyl)-1,2,4-oxadiazol-5-yl)-2,3-dihydro-1H-inden-1-yl)-2-methylisonicotinamide], the “CDMF75 IC15” value was 4300 nM and the IC50 worked out at 17700 nM.

As for `O=C(N[C@@H]1CCc2cc(-c3noc(C4CC4)n3)ccc21)c1cnn(CCCO)c1` [Compound 601, (R)-N-(5-(5-cyclopropyl-1,2,4-oxadiazol-3-yl)-2,3-dihydro-1H-inden-1-yl)-1-(3-hydroxypropyl)-1H-pyrazole-4-carboxamide], the “CDMF75 IC15” value amounted to 1600 nM and the IC50 amounted to 7300 nM.

As for `CCc1cc(C(=O)N[C@@H]2CCc3cc(-c4noc(CC)n4)ccc32)ccn1` [Compound 660, (R)-2-ethyl-N-(5-(5-ethyl-1,2,4-oxadiazol-3-yl)-2,3-dihydro-1H-inden-1-yl)isonicotinamide], the “CDMF75 IC15” value turned out to be 600 nM and the IC50 turned out to be 2000 nM.

As to `Cc1ncc(C(=O)NC2CCc3cc(-c4noc(C(F)F)n4)ccc32)o1` (centres unmarked) [Compound 9, N-(5-(5-(difluoromethyl)-1,2,4-oxadiazol-3-yl)-2,3-dihydro-1H-inden-1-yl)-2-methyloxazole-5-carboxamide], the “CDMF75 IC15” value is 1400 nM and the IC50 was found to be 6700 nM.

Turning to `O=C(NC1CC1)N[C@@H]1CCc2cc(-c3noc(C(F)F)n3)ccc21` [Compound 289, (R)-1-cyclopropyl-3-(5-(5-(difluoromethyl)-1,2,4-oxadiazol-3-yl)-2,3-dihydro-1H-inden-1-yl)urea], the “CDMF75 IC15” value was determined as 39200 nM and the IC50 was over 39200 nM.

Regarding `CCc1nc(-c2ccc3c(c2)OC[C@H]3NC(C)=O)no1` [Compound 443, (S)-N-(6-(5-ethyl-1,2,4-oxadiazol-3-yl)-2,3-dihydrobenzofuran-3-yl)acetamide], the “CDMF75 IC15” value was determined as 700 nM and the IC50 was determined as 2600 nM.

As for `Cn1nccc1C(=O)N[C@@H]1CCc2cc(C#CC3CC3)ccc21` [Compound 451, (R)-N-(5-(cyclopropylethynyl)-2,3-dihydro-1H-inden-1-yl)-1-methyl-1H-pyrazole-5-carboxamide], the “CDMF75 IC15” value came out at 2300 nM and the IC50 turned out to be 7700 nM.

For the compound `CCc1nc(-c2ccc3c(c2)OCC3NC(=O)c2ccnn2C)no1` (centres unmarked) [Compound 229, N-(6-(5-ethyl-1,2,4-oxadiazol-3-yl)-2,3-dihydrobenzofuran-3-yl)-1-methyl-1H-pyrazole-5-carboxamide], the “CDMF75 IC15” value stood at 500 nM and the 50% inhibitory concentration (IC50) came to 1400 nM.

With `CCc1nc(-c2ccc3c(c2)OC[C@H]3NC(=O)c2cc(C)no2)no1` [Compound 339, (S)-N-(6-(5-ethyl-1,2,4-oxadiazol-3-yl)-2,3-dihydrobenzofuran-3-yl)-3-methylisoxazole-5-carboxamide], the “CDMF75 IC15” value came to 400 nM and the IC50 was 1200 nM.

Turning to `CCc1nc(-c2ccc3c(c2)OC[C@H]3NC(=O)OC)no1` [Compound 349, methyl (S)-(6-(5-ethyl-1,2,4-oxadiazol-3-yl)-2,3-dihydrobenzofuran-3-yl)carbamate], the “CDMF75 IC15” value amounted to 300 nM and the IC50 came out at 900 nM.

Regarding `CCc1noc(-c2ccc3c(c2)CC[C@H]3NC(=O)c2ccnn2C)n1` [Compound 257, (R)-N-(5-(3-ethyl-1,2,4-oxadiazol-5-yl)-2,3-dihydro-1H-inden-1-yl)-1-methyl-1H-pyrazole-5-carboxamide], the “CDMF75 IC15” value was 400 nM and the half-maximal inhibitory concentration (IC50) was 1000 nM.

Take `[2H]C([2H])([2H])c1nc(-c2ccc3c(c2)CC[C@H]3NC(=O)c2ccnc(C)c2)no1` [Compound 245, (R)-2-methyl-N-(5-(5-(methyl-d3)-1,2,4-oxadiazol-3-yl)-2,3-dihydro-1H-inden-1-yl)isonicotinamide]: the “CDMF75 IC15” value worked out at 1000 nM and the IC50 worked out at 3400 nM.

On to `COCc1nc(-c2ccc3c(c2)CC[C@H]3NC(=O)c2cc(C)nn2C)no1` [Compound 179, (R)-N-(5-(5-(methoxymethyl)-1,2,4-oxadiazol-3-yl)-2,3-dihydro-1H-inden-1-yl)-1,3-dimethyl-1H-pyrazole-5-carboxamide], for which the “CDMF75 IC15” value came to 700 nM and the IC50 turned out to be 2200 nM.
